Test results reported in patent publication US7915263B2, “Aminopyridine derivatives having aurora A selective inhibitory action” (Banyu Pharmaceutical Co., Ltd., priority 2006, dated 2011).

How the values were obtained:
[1] = biological target: T1, His-tagged human Aurora A (Homo sapiens, UniProt O14965); assay: Aurora A inhibitory activity (IMAP fluorescence polarization); assay type: biochemical; conditions: 20 μM ATP, 30° C., 120 minutes
T1 construct: made in house; host or cells: Escherichia coli BL21-CodonPlus(DE3)-RIL
T1 sequence (O14965 1-403): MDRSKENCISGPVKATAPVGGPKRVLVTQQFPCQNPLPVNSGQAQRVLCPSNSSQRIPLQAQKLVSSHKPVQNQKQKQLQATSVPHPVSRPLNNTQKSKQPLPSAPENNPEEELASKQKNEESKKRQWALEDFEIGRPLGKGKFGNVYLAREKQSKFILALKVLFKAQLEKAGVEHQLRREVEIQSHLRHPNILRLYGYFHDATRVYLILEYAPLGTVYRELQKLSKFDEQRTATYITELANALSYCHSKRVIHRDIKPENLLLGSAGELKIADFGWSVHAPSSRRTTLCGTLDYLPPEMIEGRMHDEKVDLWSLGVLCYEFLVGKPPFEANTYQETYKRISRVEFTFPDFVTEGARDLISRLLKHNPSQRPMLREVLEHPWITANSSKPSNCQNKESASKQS
Source text: cDNA of N-terminal His-tagged human Aurora A was integrated into an expression vector, which was then highly expressed in Escherichia coli BL21-CodonPlus(DE3)-RIL cells. The Escherichia coli was harvested and lysed, and then the His-tagged human Aurora A protein was applied onto a nickel chelate column and eluted from the column with imidazole. The active fractions were desalted with a desalting column to give a purified enzyme.
Concretely, the phosphorylation reaction and the detection were carried out as follows:
The phosphorylation reaction was conducted using 384 well plate, and the reaction volume was 10 μl/well. The reaction buffer is comprised of 50 mM Tris-chloride buffer (pH 7.4), 15 mM magnesium acetate, and 0.2 mM ethylenediamine-N,N,N′,N′-tetraacetic acid (EDTA). […]
Thereafter, in order to terminate and detect the reaction, 30 μl of the IMAP (registered trademark) binding reagent (IMAP Progressive Binding Reagent, R7284) that had been diluted (1:400) in the 1× IMAP binding buffer A (IMAP Progressive Binding Buffer A, 5× stock, R7282) was added to each well. The solution stood still for 60 minutes in the dark, and then fluorescence polarization was measured using a high-end microplate reader (excitation wavelength: 485 nm; emission wavelength: 520 nm). […]

[2] = biological target: T2, GST-tagged human Aurora B(AurB)/His-tagged human INCENP complex proteins (Homo sapiens, UniProt Q96GD4); assay: Aurora B inhibitory activity (Method A, IMAP kit); assay type: biochemical; conditions: 40 μM ATP, 25° C., 45 minutes
T2 construct: GST; purchased Cama Biosciences, Inc. (so in the source)
Procedure: Using the same, the phosphorylation reaction was conducted in accordance with a partially revised protocol attached to the kit, and then the phosphorylation of the substrate was detected using the IMAP technology.
For the phosphorylation reaction, 384 well plate was used, and the reaction volume was 10 μl/well. The composition of the reaction buffer (assay buffer) is comprised of 20 mM of HEPES buffer (pH 7.4), 0.01% Tween-20, and 2 mM of dithiothreitol (DTT). Thereto, AurB/INCENP complex protein, 100 nM of the substrate, and 40 μM of ATP, and 1 mM of magnesium salt were added, and then the reaction was conducted at 25° C. for 45 minutes. Thereafter, in order to terminate and detect the reaction, 30 μl of the IMAP (registered trademark) binding reagent (IMAP Progressive Binding Reagent, R7284) that had been diluted (1:400) in the 1× IMAP binding buffer A (IMAP Progressive Binding Buffer A, 5× stock, R7282) was added to each well.
The compound to be tested was added to the reaction system such that a dilution series of the compound in DMSO was prepared, and then 0.5 μL of this solution was added for the testing to each well. Each control well was provided by adding 0.5 μL of DMSO to the well in place of the DMSO solution containing the compound to be tested.

[3] = test system: Human cervical cancer cells (HeLa S3); assay: Cell growth inhibitory effect, WST-8 method; assay type: cell-based; conditions: 72 h, HeLa S3, three days incubation, read-out: Cell growth inhibitory effect (HeLaS3) (IC50)
Procedure: Fetal calf serum (FCS) was purchased from Moregate Biotech, and DMEM medium was purchased from Invitrogen Corp. WST-8 was purchased from Kishida Chemical Co., Ltd.
(§1) Human cervical cancer cells (HeLa S3) were obtained from the American Type Culture Collection (ATCC).
Cells were suspended in a DMEM medium containing 10% FCS, and the cell suspension was dispensed to a 96-well plastic plate at a rate of 750 cells/100 microliters per well. The plate was incubated overnight in 5% CO2-95% air at 37° C. A drug was subjected to graded dilution in dimethylsulfoxide and further diluted with a DMEM medium containing 10% FCS. Then, the dilution was dispensed to the plate on which cells had been disseminated, at a rate of 100 microliters per well.

[4] = test system: Human cervical cancer cells (HeLa S3); assay: Effect by combined use of drugs in cells (docetaxel), WST-8 method; assay type: cell-based
Procedure: Fetal calf serum (FCS) was purchased from Moregate Biotech, DMEM medium from Invitrogen Corp., docetaxel (tradename: Taxere) from Sigma-Aldrich, Inc., and WST-8 from Kishida Chemical Co., Ltd.
as §1
Cells were suspended in a DMEM medium containing 10% FCS, and the cell suspension was dispensed to two 96-well plastic plates at a rate of 750 cells/100 microliters per well. The plates were incubated overnight in 5% CO2-95% air at 37° C. A drug was subjected to graded dilution in dimethylsulfoxide and further diluted with DMSO or with a DMEM medium containing 10% FCS and also containing 0.6 nM docetaxel. Then, the dilutions were each dispensed to one of the plates on which cells had been disseminated, at a rate of 100 microliters per well. The final concentration of docetaxel at this stage was 0.3 nM. Also, the concentrations in the case of sole administration of the compound according to the invention were 0.003, 0.01, 0.03, 0.1, 0.3, 1, 3 and 10 μM. The plates were incubated for further three days in 5% CO2-95% air at 37° C. Cell growth after incubation was measured by the WST-8 method (H. Tominaga, et al., Anal. Commun., 36, 47-50 (1999)). Here, the WST-8 method refers to a method in which 20 microliters of a WST-8 reagent solution is added to each well, incubation is conducted at 37° C. for 60 minutes, the plate is stirred, and the amount of formazan produced is measured by a colorimetric method to determine the inhibitory rate of the drug. The growth inhibitory effects of docetaxel and of the compound according to the invention were determined, with the value obtained in sole treatment of DMSO being defined as 0%.

T2 sequence (Q96GD4 whole entry): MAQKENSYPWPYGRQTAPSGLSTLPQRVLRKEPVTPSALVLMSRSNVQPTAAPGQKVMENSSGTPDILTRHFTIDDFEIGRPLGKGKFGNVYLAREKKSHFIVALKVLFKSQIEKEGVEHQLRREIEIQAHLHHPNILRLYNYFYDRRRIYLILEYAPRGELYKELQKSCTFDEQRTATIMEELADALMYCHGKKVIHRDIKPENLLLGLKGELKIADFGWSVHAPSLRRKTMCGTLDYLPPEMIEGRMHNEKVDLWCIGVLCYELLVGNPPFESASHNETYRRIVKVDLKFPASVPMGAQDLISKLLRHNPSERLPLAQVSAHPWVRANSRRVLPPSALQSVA
T2 sequence (Q9NQS7 803-916 partner limits assumed): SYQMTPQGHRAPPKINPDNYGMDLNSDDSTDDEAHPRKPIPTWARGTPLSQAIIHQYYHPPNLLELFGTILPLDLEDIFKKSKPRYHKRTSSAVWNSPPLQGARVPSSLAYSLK

Row | SMILES | IC50 [1] | IC50 [2] | IC50 [3] | inhibition at 0.1 µM ([4]; Homo sapiens, HeLa S3, compound 0.1 μM alone, read-out: Cell growth inhibitory effect by sole administration of the compound of Example (%)) | inhibition at 0.3 µM ([4]; Homo sapiens, HeLa S3, compound 0.3 μM alone, read-out: Cell growth inhibitory effect by sole administration of the compound of Example (%)) | Cell growth inhibitory effect by combined administration of docetaxel and the compound of Example (%) ([4]; compound 0.1 μM + docetaxel 0.3 nM) | Cell growth inhibitory effect by combined administration of docetaxel and the compound of Example (%) ([4]; compound 0.3 μM + docetaxel 0.3 nM)
1 | Fc1c(O[C@H]2CC[C@](Cc3cccc(Nc4cc[nH]n4)n3)(c3nncs3)CC2)cccc1C(F)(F)F [Example 27, 6-((trans-4-(2-fluoro-3-(trifluoromethyl)phenoxy)-1-(1,3,4-thiadiazol-2-yl)cyclohexyl)methyl)-N-1H-pyrazol-3-ylpyridin-2-amine] | 0.0024 µM | 0.22 µM | – | – | – | – | –
2 | O=c1[nH]nc([C@]2(Cc3cncc(Nc4cc[nH]n4)n3)CC[C@@H](Oc3cccc(Cl)c3F)CC2)o1 [Example 29, 5-(trans-4-(3-chloro-2-fluorophenoxy)-1-((6-(1H-pyrazol-3-ylamino)pyrazin-2-yl)methyl)cyclohexyl)-1,3,4-oxadiazol-2(3H)-one] | 0.00019 µM | 0.67 µM | 0.67 µM | 11.3% | 39.9% | 79.0% | 92.9%
